# Literature values as cited in paper PMC5594493, “Antiproliferative factor (APF) binds specifically to sites within the cytoskeleton-associated protein 4 (CKAP4) extracellular domain” (BMC Biochemistry, 2017).
# Tested on: CKAP4
# Details: ref [17], [18]; cited from earlier work
# Description: The effects that APF has on cells are remarkable and unique among the reported ligands for CKAP4.
substance,measurement,value
Neu5Acα2 − 3Galβ1 − 3GalNAcα-O-TVPAAVVVA [APF],effect on CKAP4 localization,"internalization, nuclear translocation"
